Tests used:
[1] = system: Mycobacterium tuberculosis Erdman (autoluminescent); experiment: GRinf, maximum normalised growth rate inhibition (unitless (-1 to 1)); higher = less effect (negative = killing)
Procedure: (§1)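 DiaMOND equipotent two-drug combination dose responses against autoluminescent M. tuberculosis Erdman in 8 in vitro models. Read-out is OD600, or luminescence for the intracellular and dormancy models, normalised to untreated wells. Hill-fit Einf, AUC25 and GRinf are potency metrics; FIC50 and FIC90 are Loewe-additivity fractional inhibitory concentrations, given as log2 (negative = synergy). Replicates are averaged.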

[2] = system: Mycobacterium tuberculosis Erdman (autoluminescent); experiment: Einf, fitted maximum growth inhibition of combination (fraction); higher = stronger maximal inhibition
Procedure: as §1

[3] = system: Mycobacterium tuberculosis Erdman (autoluminescent); experiment: FIC50 (Loewe) at 50% inhibition (log2); higher = more antagonistic
Procedure: as §1

[4] = system: Mycobacterium tuberculosis Erdman (autoluminescent); experiment: FIC90 (Loewe) at 90% inhibition (log2); higher = more antagonistic
Procedure: as §1

[5] = system: Mycobacterium tuberculosis Erdman (autoluminescent); experiment: AUC25, normalised area under dose response up to IC25 (fraction (0-1)); higher = more potent at low dose
Procedure: as §1

CC(C)/N=c1\cc2n(-c3ccc(Cl)cc3)c3ccccc3nc-2cc1Nc1ccc(Cl)cc1 [clofazimine] + NNC(=O)c1ccncc1 [isoniazid]
Conditions	AUC25, [5]	Einf, [2]	FIC50, [3]	FIC90, [4]	GRinf, [1]
in vitro model: acidic pH 5.7, time point: constant (~7 days, model-specific)	0.1	0.747	0.122	–	0.074
in vitro model: acidic pH 5.7, time point: terminal (~4-5 doublings, model-specific)	0.0893	0.942	0.116	0.154	-0.114
in vitro model: intracellular J774, time point: constant = terminal	–	0.951	–	0.406	-0.209

Conditions	AUC25, [5]	Einf, [2]	FIC50, [3]	FIC90, [4]	GRinf, [1]
in vitro model: butyrate, time point: constant (~7 days, model-specific)	0.0814	0.947	0.425	0.813	-0.079
in vitro model: butyrate, time point: terminal (~4-5 doublings, model-specific)	0.0801	0.988	0.35	0.54	-0.117
in vitro model: cholesterol 0.05 mM, time point: constant (~7 days, model-specific)	0.114	0.719	0.223	–	-0.06
in vitro model: cholesterol 0.05 mM, time point: terminal (~4-5 doublings, model-specific)	0.126	0.928	0.688	0.0937	-0.181
in vitro model: cholesterol-high 0.2 mM, time point: constant (~7 days, model-specific)	0.118	0.93	0.123	-0.0588	-0.856
in vitro model: cholesterol-high 0.2 mM, time point: terminal (~4-5 doublings, model-specific)	0.106	0.999	0.197	0.419	-0.882
in vitro model: dormancy (butyrate + nitrate, low O2), time point: constant (~7 days, model-specific)	0.0958	0.92	-0.176	-0.0674	0.255
in vitro model: dormancy (butyrate + nitrate, low O2), time point: terminal (~4-5 doublings, model-specific)	0.058	0.981	-0.116	-0.0457	-0.0683
in vitro model: standard 7H9 glycerol, time point: constant = terminal	0.105	0.964	-0.0807	0.0617	-0.146
in vitro model: valerate, time point: constant (~7 days, model-specific)	0.144	0.925	0.0757	1.95	-0.0991
in vitro model: valerate, time point: terminal (~4-5 doublings, model-specific)	0.0841	0.937	-0.0577	0.814	0.0302

COc1c(N2C[C@@H]3CCCN[C@@H]3C2)c(F)cc2c(=O)c(C(=O)O)cn(C3CC3)c12 [moxifloxacin] + NC(=O)c1cnccn1 [pyrazinamide]
Conditions	AUC25, [5]	Einf, [2]	FIC50, [3]	FIC90, [4]	GRinf, [1]
in vitro model: acidic pH 5.7, time point: constant (~7 days, model-specific)	0.105	0.748	-1.4	–	-0.479
in vitro model: acidic pH 5.7, time point: terminal (~4-5 doublings, model-specific)	0.0766	0.958	0.112	-1.08	-0.337
in vitro model: intracellular J774, time point: constant = terminal	–	0.992	–	0.544	-0.418

Conditions	AUC25, [5]	Einf, [2]	FIC50, [3]	FIC90, [4]	GRinf, [1]
in vitro model: butyrate, time point: constant (~7 days, model-specific)	0.114	0.922	0.244	0.945	-0.0871
in vitro model: butyrate, time point: terminal (~4-5 doublings, model-specific)	0.076	0.967	0.181	0.416	0.0175
in vitro model: cholesterol 0.05 mM, time point: constant (~7 days, model-specific)	0.12	0.628	–	–	0.0508
in vitro model: cholesterol 0.05 mM, time point: terminal (~4-5 doublings, model-specific)	0.135	0.936	-0.139	1.9	-0.173
in vitro model: cholesterol-high 0.2 mM, time point: constant (~7 days, model-specific)	0.0967	0.93	0.32	–	-0.314
in vitro model: cholesterol-high 0.2 mM, time point: terminal (~4-5 doublings, model-specific)	0.0857	0.997	0.528	0.356	-0.695
in vitro model: dormancy (butyrate + nitrate, low O2), time point: constant (~7 days, model-specific)	0.0895	0.921	-0.473	-0.106	0.0154
in vitro model: dormancy (butyrate + nitrate, low O2), time point: terminal (~4-5 doublings, model-specific)	0.0636	0.983	-0.404	-0.148	-0.105
in vitro model: standard 7H9 glycerol, time point: constant = terminal	0.0774	0.974	–	–	-0.163
in vitro model: valerate, time point: constant (~7 days, model-specific)	0.0818	0.834	0.51	–	-0.121
in vitro model: valerate, time point: terminal (~4-5 doublings, model-specific)	0.0462	0.917	0.399	0.0879	0.0483

CC[C@@H](CO)NCCN[C@@H](CC)CO [ethambutol] + O=[N+]([O-])c1cn2c(n1)OC[C@@H](OCc1ccc(OC(F)(F)F)cc1)C2 [pretomanid]
Conditions	AUC25, [5]	Einf, [2]	FIC50, [3]	FIC90, [4]	GRinf, [1]
in vitro model: acidic pH 5.7, time point: constant (~7 days, model-specific)	0.113	0.847	0.0798	-1.11	-0.488
in vitro model: acidic pH 5.7, time point: terminal (~4-5 doublings, model-specific)	0.0826	0.978	0.568	0.214	-0.437
in vitro model: intracellular J774, time point: constant = terminal	–	0.977	–	-1.45	-0.403

Conditions	AUC25, [5]	Einf, [2]	FIC50, [3]	FIC90, [4]	GRinf, [1]
in vitro model: butyrate, time point: constant (~7 days, model-specific)	0.0746	0.924	0.254	–	0.00273
in vitro model: butyrate, time point: terminal (~4-5 doublings, model-specific)	0.0585	0.967	0.0549	-0.401	-0.0359
in vitro model: cholesterol 0.05 mM, time point: constant (~7 days, model-specific)	0.12	0.79	0.407	–	-0.319
in vitro model: cholesterol 0.05 mM, time point: terminal (~4-5 doublings, model-specific)	0.104	0.934	0.436	1.01	-0.25
in vitro model: cholesterol-high 0.2 mM, time point: constant (~7 days, model-specific)	0.0476	0.871	1.02	–	-0.159
in vitro model: cholesterol-high 0.2 mM, time point: terminal (~4-5 doublings, model-specific)	0.0356	0.99	0.975	1.06	-0.498
in vitro model: dormancy (butyrate + nitrate, low O2), time point: constant (~7 days, model-specific)	0.1	0.835	0.385	–	0.404
in vitro model: dormancy (butyrate + nitrate, low O2), time point: terminal (~4-5 doublings, model-specific)	0.112	0.968	0.00245	0.272	0.0288
in vitro model: standard 7H9 glycerol, time point: constant = terminal	0.076	0.958	0.211	-0.156	-0.109
in vitro model: valerate, time point: constant (~7 days, model-specific)	0.111	0.836	0.23	–	0.0201
in vitro model: valerate, time point: terminal (~4-5 doublings, model-specific)	0.0733	0.922	0.115	0.51	0.0884

CC(C)/N=c1\cc2n(-c3ccc(Cl)cc3)c3ccccc3nc-2cc1Nc1ccc(Cl)cc1 [clofazimine] + CC[C@@H](CO)NCCN[C@@H](CC)CO [ethambutol]
Conditions	AUC25, [5]	Einf, [2]	FIC50, [3]	FIC90, [4]	GRinf, [1]
in vitro model: acidic pH 5.7, time point: constant (~7 days, model-specific)	0.101	0.702	0.298	–	0.0851
in vitro model: acidic pH 5.7, time point: terminal (~4-5 doublings, model-specific)	0.0812	0.937	0.474	0.294	-0.228
in vitro model: intracellular J774, time point: constant = terminal	–	1	–	-0.448	-0.789

Conditions	AUC25, [5]	Einf, [2]	FIC50, [3]	FIC90, [4]	GRinf, [1]
in vitro model: butyrate, time point: constant (~7 days, model-specific)	0.0939	0.947	0.311	–	-0.0791
in vitro model: butyrate, time point: terminal (~4-5 doublings, model-specific)	0.0809	0.975	0.299	0.104	-0.0975
in vitro model: cholesterol 0.05 mM, time point: constant (~7 days, model-specific)	0.13	0.635	0.526	–	-0.0623
in vitro model: cholesterol 0.05 mM, time point: terminal (~4-5 doublings, model-specific)	0.137	0.854	0.199	–	-0.424
in vitro model: cholesterol-high 0.2 mM, time point: constant (~7 days, model-specific)	0.089	0.983	0.491	–	-0.666
in vitro model: cholesterol-high 0.2 mM, time point: terminal (~4-5 doublings, model-specific)	0.0861	0.999	0.255	0.466	-0.935
in vitro model: dormancy (butyrate + nitrate, low O2), time point: constant (~7 days, model-specific)	0.0731	0.788	-0.136	–	0.516
in vitro model: dormancy (butyrate + nitrate, low O2), time point: terminal (~4-5 doublings, model-specific)	0.114	0.967	0.277	0.818	-0.0829
in vitro model: standard 7H9 glycerol, time point: constant = terminal	0.111	0.963	-0.113	0.12	-0.234
in vitro model: valerate, time point: constant (~7 days, model-specific)	0.144	0.899	0.000309	–	-0.321
in vitro model: valerate, time point: terminal (~4-5 doublings, model-specific)	0.0819	0.913	0.0811	-0.728	-2.83e-05
